Data on eight compounds can be found in patent US11667651B2, “Aminopyridine derivatives as phosphatidylinositol phosphate kinase inhibitors” (HiberCell, Inc., priority 2017, dated 2023).

Holding throughout (format): biochemical
One assay addresses T1, PIP4K2B (Homo sapiens, UniProt P78356).
T1 construct: made in house; host or cells: E. coli
T1 sequence (P78356 1-416): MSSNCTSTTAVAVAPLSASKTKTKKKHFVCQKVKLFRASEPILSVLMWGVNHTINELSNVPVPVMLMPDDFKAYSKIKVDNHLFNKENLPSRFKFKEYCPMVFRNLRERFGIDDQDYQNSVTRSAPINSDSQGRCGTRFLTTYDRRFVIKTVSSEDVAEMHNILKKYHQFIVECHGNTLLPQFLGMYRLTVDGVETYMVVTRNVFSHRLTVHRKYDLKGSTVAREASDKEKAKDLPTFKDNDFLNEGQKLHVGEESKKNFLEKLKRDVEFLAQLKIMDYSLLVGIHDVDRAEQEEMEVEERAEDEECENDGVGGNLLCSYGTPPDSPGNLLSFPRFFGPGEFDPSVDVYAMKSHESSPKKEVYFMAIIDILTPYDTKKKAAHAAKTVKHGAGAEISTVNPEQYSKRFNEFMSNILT
The experiment in a line: Trans-FI P kinase assay PIP4K2B (Table 4). The note with it: compounds listed under IC50 bins; read-out: Trans-FI P kinase assays: PIP4K2B IC50. The method, boiled down: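 Transcreener FI detection (Ex 584/Em 623) of GDP, converted via calibration curve, gives IC50 from residual activity versus log concentration (highest 4.8 μM). Reaction: 80 μM PI5P plus DOPE carrier, 100 μM GTP, 5 nM GST-tagged enzyme, pH 7.3 HEPES with MgCl2 and 5% DMSO, 2 h after 1 h enzyme-compound preincubation at 27° C.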

In assay [1] the target is T2, PIP4K2A (Homo sapiens, UniProt P48426).
T2 sequence (P48426 1-406): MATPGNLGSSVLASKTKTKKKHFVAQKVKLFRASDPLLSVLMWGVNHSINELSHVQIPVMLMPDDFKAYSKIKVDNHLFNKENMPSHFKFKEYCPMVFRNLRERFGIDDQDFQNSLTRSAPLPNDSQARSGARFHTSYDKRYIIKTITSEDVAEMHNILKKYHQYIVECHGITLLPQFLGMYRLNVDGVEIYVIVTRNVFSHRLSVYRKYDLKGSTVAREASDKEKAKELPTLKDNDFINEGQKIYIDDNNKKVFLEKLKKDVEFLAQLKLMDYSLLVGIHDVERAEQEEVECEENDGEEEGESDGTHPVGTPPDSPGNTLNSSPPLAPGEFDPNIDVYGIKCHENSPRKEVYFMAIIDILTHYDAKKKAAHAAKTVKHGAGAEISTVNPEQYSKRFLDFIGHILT
The experiment in a line: ADP-glo kinase assay PIP4K 2A (Table 3). Set-up: made in house; host or cells: E. coli. To be noted: compounds listed under IC50 bins. The gist of the method:
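ADP-Glo luminescence detected ADP after 1 h RT reaction started by ATP (60 μM solution) on full-length PIP4K2A (4 nM in mix) and PI(5)P diC8 (100 μM in mix), preceded by 15 min enzyme-compound preincubation in MOPS pH 7.2/25 mM MgCl2. Percent inhibition versus DMSO over 10 concentrations fitted for IC50.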

Assay [2] has as its target T2, PIP4K2A. The experiment in a line: Kinase Assay PIP4K2 A (Table 2). Further details: 4 nM PIP4K2A (full length protein, SignalChem); purchased SignalChem. The note with it: compounds listed under IC50 bins. The gist of the method: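 ADP-Glo luminescent read-out after 1 h room-temperature kinase reaction, started with 60 μM ATP solution following 15 min compound pre-incubation. Enzyme/substrate mix: 4 nM full-length PIP4K2A plus 100 μM PI(5)P diC8; buffer MOPS pH 7.2 with 25 mM MgCl2 and Tween 20. IC50 from 10-point, 3-fold titrations normalized to DMSO.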

Regarding `CS(=O)(=O)N1CCOc2ncc(Nc3ccc(-c4ccc(N5CCCC5=O)cc4)cn3)cc21` [Example 156, 1-(4-(6-((1-(methylsulfonyl)-2,3-dihydro-1H-pyrido[2,3-b][1,4]oxazin-7-yl)amino)pyridin-3-yl)phenyl)pyrrolidin-2-one], the IC50 on PIP4K2B lay in the range of 10 to 100 nM; against PIP4K2A [1], 10 to 100 nM; on PIP4K2A [2] it was 1 to 10 nM.

As for `CN(C)C(=O)c1ccc(-c2ccc(Nc3cncc(NC(=O)CCc4cccc(NC(=O)CN)c4)c3)nc2)cc1` [Example 107, 4-(6-((5-(3-(3-(2-aminoacetamido)phenyl)propanamido)pyridin-3-yl)amino)pyridin-3-yl)-N,N-dimethylbenzamide], the IC50 on PIP4K2B is 10 to 100 nM; at PIP4K2A [1] it was 100 to 1000 nM; against PIP4K2A [2], 100 to 1000 nM.

On to `CN(C)C(=O)c1ccc(-c2ccc(Nc3cnc4c(c3)N(C(=O)c3ccccn3)CCO4)nc2)cc1` [Example 95, N,N-dimethyl-4-(6-((1-picolinoyl-2,3-dihydro-1H-pyrido[2,3-b][1,4]oxazin-7-yl)amino)pyridin-3-yl)benzamide], for which the IC50 at PIP4K2B, against PIP4K2A [1] and against PIP4K2A [2] was 10 to 100 nM in each case.

For `COC(=O)Nc1cncc(Nc2ccc(-c3ccc(C(=O)N(C)C)cc3)cn2)c1` [Example 120, methyl(5-((5-(4-(dimethylcarbamoyl)phenyl)pyridin-2-yl)amino)pyridin-3-yl)carbamate], the IC50 lay within 10 to 100 nM at PIP4K2B, 100 to 1000 nM against PIP4K2A [1] and 10 to 100 nM against PIP4K2A [2].

For the compound `CN(C)CC(=O)Nc1cncc(Nc2ccc(-c3ccc(C(=O)N(C)C)cc3)cn2)c1` [Example 125, 4-(6-((5-(2-(dimethylamino)acetamido)pyridin-3-yl)amino)pyridin-3-yl)-N,N-dimethylbenzamide], the figures for the IC50 at PIP4K2B, at PIP4K2A [1] and at PIP4K2A [2] were 10 to 100 nM, 100 to 1000 nM and 100 to 1000 nM, respectively.

For `CN(C)C(=O)c1ccc(-c2ccc(Nc3cncc(NC(=O)CCc4cccc(NC(=O)CCCCCN)c4)c3)nc2)cc1` [Example 111, 4-(6-((5-(3-(3-(6-aminohexanamido)phenyl)propanamido)pyridin-3-yl)amino)pyridin-3-yl)-N,N-dimethylbenzamide], the IC50 was 10 to 100 nM at PIP4K2B, 1 to 10 nM against PIP4K2A [1] and 1 to 10 nM at PIP4K2A [2].

Consider `O=C1CCCN1c1ccc(-c2ccc(Nc3cnc4c(c3)N(C(=O)C3CC3)CCO4)nc2)cc1` [Example 150, 1-(4-(6-((1-(cyclopropanecarbonyl)-2,3-dihydro-1H-pyrido[2,3-b][1,4]oxazin-7-yl)amino)pyridin-3-yl)phenyl)pyrrolidin-2-one], for which the IC50 at PIP4K2B is 10 to 100 nM; against PIP4K2A [1], 1 to 10 nM; on PIP4K2A [2], 1 to 10 nM.

`CN(C)C(=O)c1ccc(-c2ccc(Nc3cncc(NC(=O)C4CCOCC4)c3)nc2)cc1` [Example 126, N-(5-((5-(4-(dimethylcarbamoyl)phenyl)pyridin-2-yl)amino)pyridin-3-yl)tetrahydro-2H-pyran-4-carboxamide]: the IC50 lay within 10 to 100 nM on PIP4K2B, 100 to 1000 nM against PIP4K2A [1] and 10 to 100 nM against PIP4K2A [2].
